# Measurements: patent publication US20250108070A1, “METHOD FOR REPROGRAMMING CD8+ T CELLS TO ENHANCE THEIR THERAPEUTIC POTENTIAL AND APPLICATIONS THEREOF” (INSTITUT PASTEUR, priority 2022, published 2025)
# Key:
# GSK3 = conditions: cited from earlier work
# [1] = system: mTORC1 and mTORC2 pathways; experiment: Screening of GSK3 inhibitors: phospho-S6 / phospho-AKT staining (activation of mTORC1 and mTORC2 pathways); assay type: cell-based, human; conditions: FIG. 12A, in words
# Procedure: (§1) FIG. 12. Screening molecules for reprogramming human CD8^+ T cells Total CD8^+ T cells were purified and treated for 12 hs with titrated doses of GSK3 inhibitors or DMSO vehicle control. After drug washout, cells were stimulated for 48 hs with plate-bound anti-CD3/anti-CD28 antibodies (at 1 mg/mL), followed by flow cytometry analyses. A. Upon stimulation, intracellular cytokine and phospho-protein staining was performed, the latter for the detection of phospho-S6 and phospho-AKT proteins (indicative of activation of mTORC1 and mTORC2 pathways, respectively). The fold change in the frequency of IFN-γ^+TNF-α^+ and pS6^+pAKT^+ cells induced by the treatment with each GSK3 inhibitor, relative to DMSO control, was analyzed. […] B. Fold change in the expression of the indicated markers and memory phenotypes induced by anti-CD3/anti-CD28 antibody stimulation relative to unstimulated cells (at least 3 donors per condition). TCM: T central memory; TEM: T effector memory; TTM: T transitional memory; TTE: T terminal effector; TSCM: T stem cell memory.
# (§2) For reprogramming of CD8^+ T cells followed by polyclonal stimulation, cells were isolated by negative magnetic bead sorting (Stemcell Technologies). For reprogramming of CD8^+ T cells followed by antigen-specific stimulation, PBMC and magnetically separated CD8^+ T cells and non-CD8^+ T cells were used (REAlease® CD8 MicroBead Kit; Miltenyi Biotech). Then, CD8^+ T cells were treated with a GSK3 inhibitor (6-Bromoindirubin-3′-oxime; BIO; Sigma-Aldrich), at 3 μM, or an equivalent concentration of dimethyl sulfoxide (DMSO) vehicle control, in complete medium, for 12 hs at 37° C., 5% CO2. Non-CD8 cells were left resting during this time in complete medium. CD8^+ T cells were washed with complete medium and stimulated with the peptide pool in presence of non-CD8 T cells.
# (§3) In some experiments, cells were culture in RPMI medium without glucose (MP Biomedicals). CD8^+ T cell proliferation was evaluated by CFSE dilution (at 1 μM, Thermo Fisher Scientific). In additional experiments, reprogrammed CD8^+ T cells were stimulated with IL-7 or IL-15 (both at 10 ng/mL; R&D) and cultured for 6 days. In all the cases, cells were cultured at a density of 2×10^6 cells/mL.
# (§4) After cultures, cells were stained with the LIVE/DEAD Fixable Aqua Dead Cell Stain kit (Thermo Fisher Scientific), with anti-CD3 Alexa Fluor 700 or APC efluor 780 and anti-CD8 PE Texas Red antibodies, accordingly. […] In some experiments, cells were stained with APC-conjugated dextramers (Immudex), incubated for 15 minutes at room temperature. Additional surface staining panels included anti-HLA-DR Superbright 780, anti-CD38 Superbright 600, anti-PD-1 BV421, anti-LAG-3 APC efluor 780, anti-TIM3 PE Cy7, and anti-TIGIT BV786 antibodies, or anti-CD122 PE and anti-CD215 FITC antibodies. The BD Transcription Factor Buffer Set kit (BD Biosciences) was used for cell fixation and permeabilization. […] Cell acquisition was performed using LSR II or ARIA III flow cytometers (both from BD Biosciences), and data were analyzed with FlowJo v.10 software (BD Biosciences).
# (§5) The inventors explored GSK3 inhibitors to expand the array of molecules that could be used for CD8^+ T cell reprogramming. They implemented a screening approach that combined the evaluation of cytokine polyfunctionality of CD8^+ T cells (IFN-γ+TNFα+) vs the activation of mTORC1 and mTORC2 pathways (pS6+pAKT+) upon treatment with the GSK3 inhibitors and subsequent polyclonal stimulation.
# human CD8+ T cells [2] = experiment: Screening of GSK3 inhibitors: cytokine polyfunctionality (IFN-γ+TNF-α+) of CD8+ T cells after anti-CD3/anti-CD28 stimulation; assay type: cell-based; conditions: FIG. 12A, in words
# Procedure: as §1, §2, §3, §4, §5
# human CD8+ T cells [3] = experiment: Screening of GSK3 inhibitors: markers and memory phenotypes by flow cytometry; assay type: cell-based; conditions: FIG. 12B, in words
# Procedure: as §1, §2, §3, §4
smiles,measurement,setting,value
"O=C1Nc2cc(Br)ccc2/C1=C1/Nc2ccccc2/C1=N\O [BIO, 6-bromoindirubin-3′-oxime]",beta-catenin phosphorylation,"GSK3; Meijer L et al., 2003",reduces
same,phosphorylation on Tyr276/216 GSK3a/p activation site,"GSK3; Meijer L et al., 2003",inhibits
same,Wnt/β-catenin/TCF-1 pathway,GSK3; reference 42,induce the activation
same,frequency of pS6+pAKT+ cells / activation of mTORC pathway,[1],lower frequency
same,IFN-γ+TNF-α+ cells (polyfunctionality) relative to vehicle control,human CD8+ T cells [2],promoted
same,CD127+ T-bet− phenotype,human CD8+ T cells [3],preserved
same,"acquisition of T-bet, HLA-DR and CD38, PD-1 and LAG-3",human CD8+ T cells [3],restrained
same,phenotype / profile promoted in CD8+ T cells,human CD8+ T cells [3],promoted a less-differentiated phenotype
